Laboratory results taken from patent US20240132480A1, “INHIBITORS OF MYCOBACTERIUM TUBERCULOSIS LIPOAMIDE DEHYDROGENASE” (Cornell University, priority 2021, published 2024).
Where two headings read alike, the source gives them in different places.

What was measured:
[1] = molecular target: Mtb Lpd (Mycobacterium tuberculosis (strain ATCC 25618 / H37Rv), UniProt P9WHH9); format: biochemical
[2] = microsomes
[3] = 30 min preincubation, read-out: LPD IC50 (μM) w/ 30 min preincubation

Compound	IC50 [1, 3]	Human Liver Microsome Stability [2]	IC50 ([1]; read-out: LPD IC50)
CCc1ccc(NC(=O)CN(C)S(=O)(=O)c2cc(C)cc3cc(C#N)[nH]c23)cc1Cl [Example 212]	0.035 µM	210 µL/min/mg	–
Cc1cc(S(=O)(=O)N2CC[C@H]2C(=O)NCC#Cc2ccccc2)c2[nH]ncc2c1 [Example 205]	–	205 µL/min/mg	0.154 µM
Cc1cc(S(=O)(=O)N(CC(=O)NC2=CC(=O)C(C)C=C2)C(C)C)c2[nH]ncc2c1 (stereo not shown) [Example 47]	–	-9 µL/min/mg	0.434 µM
Cc1cc(S(=O)(=O)N2CC[C@H]2C(=O)Nc2ccc(OCCN(C)C)c(Cl)c2)c2[nH]ncc2c1 [Example 168]	–	1 µL/min/mg	0.143 µM
Cn1ccc(NC(=O)[C@@H]2CCN2S(=O)(=O)c2cc(Cl)cc3c(F)n[nH]c23)cc1=O [Example 148]	–	-17 µL/min/mg	0.04 µM
Cn1ccc(NC(=O)[C@@H]2CCN2S(=O)(=O)c2cc(C=O)cc3c(F)n[nH]c23)cc1=O [Example 186, (S)-1-((3-fluoro-5-formyl-1H-indazol-7-yl)sulfonyl)-N-(1-methyl-2-oxo-1,2-dihydropyridin-4-yl)azetidine-2-carboxamide]	–	153 µL/min/mg	1.04 µM
CCn1ccc(NC(=O)CN(C)S(=O)(=O)c2cc(C)cc3cn[nH]c23)cc1=O [Example 14, 2-((N,5-dimethyl-1H-indazole)-7-sulfonamido)-N-(1-ethyl-2-oxo-1,2-dihydropyridin-4-yl)acetamide]	–	-12 µL/min/mg	0.0531 µM
Cc1cc(S(=O)(=O)N(C)CC(=O)Nc2ccn(C)c(=O)c2)c2[nH]c(C#N)cc2c1 [Example 124, 2-((2-cyano-N,5-dimethyl-1H-indole)-7-sulfonamido)-N-(1-methyl-2-oxo-1,2-dihydropyridin-4-yl)acetamide]	–	51 µL/min/mg	0.0796 µM
Cc1cc(S(=O)(=O)N2CC[C@H]2C(=O)Nc2ccn(C)c(=O)c2)c2[nH]ncc2c1 [Example 27, (S)-1-((5-methyl-1H-indazol-7-yl)sulfonyl)-N-(1-methyl-2-oxo-1,2-dihydropyridin-4-yl)azetidine-2-carboxamide]	–	-8 µL/min/mg	0.0545 µM
Cc1cc(S(=O)(=O)N(C)CC(=O)Nc2ccc(C3CCCCC3)c(C)c2)c2[nH]c(C)cc2c1 [Example 42]	–	23 µL/min/mg	0.573 µM
CN(CC(=O)Nc1ccn(C)c(=O)c1)S(=O)(=O)c1cc(Cl)cc2c(F)n[nH]c12 [Example 150]	–	1 µL/min/mg	0.046 µM
Cc1cc(S(=O)(=O)N(C)CC(=O)Nc2ccn3nccc3c2)c2[nH]ncc2c1 [Example 25]	–	275 µL/min/mg	0.0204 µM
Cc1cc(S(=O)(=O)N2CC[C@H]2C(=O)Nc2ccn(C)c(=O)c2)c2[nH]nc(Cl)c2c1 [Example 178]	–	-13 µL/min/mg	0.211 µM
Cc1cc(S(=O)(=O)N2CCC(C(=O)Nc3ccn(C)c(=O)c3)C2)c2[nH]ncc2c1 (stereo not shown) [Example 97]	–	-5 µL/min/mg	0.0419 µM
Cc1cc(S(=O)(=O)N2CC[C@H]2C(=O)NCC#N)c2[nH]ncc2c1 [Example 202]	–	4 µL/min/mg	0.323 µM
Cc1cc(S(=O)(=O)N(C)CC(=O)Nc2ccc3ncccc3c2)c2n[nH]cc2c1 [Example 52]	–	113 µL/min/mg	0.0218 µM
Cc1cc(S(=O)(=O)N(C)CC(=O)Nc2ccc3c(c2)N(C)CCO3)c2[nH]ncc2c1 [Example 31]	–	91 µL/min/mg	0.0165 µM
Cc1cc(S(=O)(=O)N(C)CC(=O)Nc2ccc3c(c2)OCCN3C2CCOCC2)c2[nH]c(C#N)cc2c1 [Example 181, 2-((2-cyano-N,5-dimethyl-1H-indole)-7-sulfonamido)-N-(4-(tetrahydro-2H-pyran-4-yl)-3,4-dihydro-2H-benzo[b][1,4]oxazin-7-yl)acetamide]	–	195 µL/min/mg	0.095 µM
Cc1cc(S(=O)(=O)N2CC[C@@H](C(=O)Nc3ccc4c(c3)OCCN4C3CCOCC3)C2)c2n[nH]cc2c1 [Example 122]	–	26 µL/min/mg	0.0304 µM
Cc1cc(S(=O)(=O)N(C)CC(=O)Nc2ccc3c(c2)N(C2COC2)CCO3)c2[nH]c(C#N)cc2c1 [Example 208]	0.015 µM	341 µL/min/mg	–
